Reference: patent US8455688B2, “HDAC inhibitors” (Lixte Biotechnology, Inc., priority 2007, dated 2013)
In brackets after ≈: the same amount, converted by molar mass. Where two headings read alike, the source gives them in different places.

What was measured:
[1] = tested on: S. apiospermum; test: Broth dilution antifungal susceptibility testing, S. apiospermum; assay type: cell-based, Pseudallescheria boydii; details: Scedosporium apiospermum, 80% inhibition, read-out: minimum inhibitory concentration (MIC)
Procedure, shortened: (§1)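 Clinical isolates tested by NCCLS broth dilution (M27-A2 for yeasts, M38-A for moulds) in RPMI-1640 with glutamine, no bicarbonate, at 35° C. Inoculum 0.5-2.5×10^3 for yeasts. Final drug concentrations 0.125-64 μg/ml from DMSO stocks; MIC read at first 24-hour interval with growth in drug-free control.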

[2] = tested on: T. rubrum; test: Broth dilution antifungal susceptibility testing, T. rubrum; assay type: cell-based, Trichophyton rubrum; details: Trichophyton rubrum, 80% inhibition, read-out: minimum inhibitory concentration (MIC)
Procedure, shortened: as §1

[3] = tested on: C. glabrata; test: Broth dilution antifungal susceptibility testing, C. glabrata; assay type: cell-based, Candida glabrata; details: Nakaseomyces glabratus, 50% reduction in turbidity, read-out: minimum inhibitory concentration (MIC)
Procedure, shortened: as §1

[4] = tested on: cell line U-87; test: Activity against the cell line U-87; assay type: cell-based, human; details: potency on an equimolar basis
[5] = tested on: U87 GBM xenografts; test: Inhibition of U87 GBM xenografts; details: in vivo
[6] = tested on: CP Control; test: Broth dilution antifungal susceptibility testing, CP Control; assay type: cell-based; details: read-out: minimum inhibitory concentration (MIC)
Method: A total of 23 isolates were tested to include 3 Candida albicans, 3 Candida glabrata, 3 Cryptococcus neoformans, 3 Aspergillus fumigatus, 3 Rhizopus oryzae, 3, Fusarium solani, 3 Pseudallescheria boydii, and 2 […]. All isolates were clinical isolates submitted to the Fungus Testing Laboratory for evaluation. Antifungal susceptibility testing was accomplished according to the methods outlined in the National Committee for Clinical Laboratory Standards, M-27A2, Reference Method for Broth Dilution Antifungal Susceptibility Testing of Yeasts; Approved Standard, and M38-A “Reference Method for Broth Dilution Antifungal Susceptibility Testing of Conidium-Forming Filamentous Fungi; Approved Standard”. This includes testing in RPMI-1640 with glutamine and without bicarbonate, an inoculum size of 0.5-2.5×10^3 for yeasts or […] for moulds, and incubation at 35° C. for 24 and 48 hours. […] Drug concentrations were 0.125-64 μg/ml. A 10 mg portion of each powder was weighed out and added to 1 ml of 100% DMSO for compound 205. The resulting concentration of […] was diluted to a working concentration of 6400 μg/ml for compound 205 in 100% DMSO. All subsequent dilutions were also made using the respective diluents. Final testing concentrations ranged from 0.125-64 μg/ml. The NCCLS recommended medium RPMI-1640 (Hardy Diagnostics, Santa Monica, Calif.) was utilized as the test medium. All isolates in this study were clinical isolates received in the Fungus Testing Laboratory for standard antifungal susceptibility testing and/or identification. Isolates, which were not sent for identification, were confirmed to assure testing integrity. A total of 23 were tested to include 3 Candida albicans, 3 Candida glabrata, 3 Cryptococcus neoformans, 3 Aspergillus fumigatus, 3 Rhizopus oryzae, 3, Fusarium solani, 3 Pseudallescheria boydii, and 2 […]. Minimum inhibitory concentrations (MIC) were determined at the first 24-hour interval where growth could be determined in the drug-free control tube.

[7] = tested on: GBM xenograft; test: GBM xenograft tumor volume in SCID mice; assay type: in vivo; details: tumor cells implanted subcutaneously, 0, 7, 14, 21 and 28 days
[8] = tested on: F. solani; test: Broth dilution antifungal susceptibility testing, F. solani; assay type: cell-based; details: Fusarium solani, 80% inhibition, read-out: minimum inhibitory concentration (MIC)
Procedure, shortened: as §1

[9] = tested on: C. neoformans; test: Broth dilution antifungal susceptibility testing, C. neoformans; assay type: cell-based; details: Cryptococcus neoformans, 50% reduction in turbidity, read-out: minimum inhibitory concentration (MIC)
Procedure, shortened: as §1

[10] = tested on: C. albicans; test: Broth dilution antifungal susceptibility testing, C. albicans; assay type: cell-based, Candida albicans; details: Candida albicans, 50% reduction in turbidity, read-out: minimum inhibitory concentration (MIC)
Procedure, shortened: as §1

[11] = tested on: R. arrhizus; test: Broth dilution antifungal susceptibility testing, R. arrhizus; assay type: cell-based, Rhizopus oryzae; details: Rhizopus arrhizus, 80% inhibition, read-out: minimum inhibitory concentration (MIC)
Procedure, shortened: as §1

[12] = tested on: A. fumigatus; test: Broth dilution antifungal susceptibility testing, A. fumigatus; assay type: cell-based, Aspergillus fumigatus; details: Aspergillus fumigatus, 80% inhibition, read-out: minimum inhibitory concentration (MIC)
Procedure, shortened: as §1

CN(C)c1ccc(NC(=O)CCCCCNC(=O)c2ccccc2S)cc1 [Compound 206, 2-Mercapto-N-[5-(4-dimethylamino-3-yl-carbamoyl)pentyl]benzamide]
MIC ([1]; 24 h, isolate 07-1333, 24 hours): 1 µg/mL (≈ 2.59 µM)
MIC ([1]; 24 h, isolate 07-1502, 24 hours): 8 µg/mL (≈ 20.8 µM)
MIC ([1]; 24 h, isolate 07-1601, 24 hours): 2 µg/mL (≈ 5.19 µM)
MIC ([1]; 48 h, isolate 07-1333, 48 hours): 2 µg/mL (≈ 5.19 µM)
MIC ([1]; 48 h, isolate 07-1502, 48 hours): 16 µg/mL (≈ 41.5 µM)
MIC ([1]; 48 h, isolate 07-1601, 48 hours): 2 µg/mL (≈ 5.19 µM)
MIC ([2]; 24 h, isolate 07-1743, 24 hours): 0.25 µg/mL (≈ 0.648 µM)
MIC ([2]; 24 h, isolate 07-2055, 24 hours): 0.25 µg/mL (≈ 0.648 µM)
MIC ([2]; 48 h, isolate 07-1743, 48 hours): 0.25 µg/mL (≈ 0.648 µM)
MIC ([2]; 48 h, isolate 07-2055, 48 hours): 0.25 µg/mL (≈ 0.648 µM)
MIC ([3]; 24 h, isolate 07-2964, 24 hours): 32 µg/mL (≈ 83 µM)
MIC ([3]; 24 h, isolate 07-2965, 24 hours): 32 µg/mL (≈ 83 µM)
MIC ([3]; 24 h, isolate 07-3013, 24 hours): 32 µg/mL (≈ 83 µM)
MIC ([3]; 48 h, isolate 07-2964, 48 hours): > 64 µg/mL
MIC ([3]; 48 h, isolate 07-2965, 48 hours): > 64 µg/mL
MIC ([3]; 48 h, isolate 07-3013, 48 hours): > 64 µg/mL
activity against the cell line U-87 [4]: most potent on an equimolar basis
inhibition of U87 GBM xenografts compared to control [5]: significant inhibition
MIC ([6]; 24 hours): 8 µg/mL (≈ 20.8 µM)
MIC ([6]; 48 hours): 64 µg/mL (≈ 166 µM)
inhibition of GBM xenograft tumor volume [7]: inhibited the growth of GBM xenograft tumor volume
MIC ([8]; 24 h, isolate 07-1399, 24 hours): > 64 µg/mL
MIC ([8]; 24 h, isolate 07-1755, 24 hours): > 64 µg/mL
MIC ([8]; 24 h, isolate 07-1867, 24 hours): 64 µg/mL (≈ 166 µM)
MIC ([8]; 48 h, isolate 07-1399, 48 hours): > 64 µg/mL
MIC ([8]; 48 h, isolate 07-1755, 48 hours): > 64 µg/mL
MIC ([8]; 48 h, isolate 07-1867, 48 hours): > 64 µg/mL
MIC ([9]; 24 h, isolate 07-2665, 24 hours): 16 µg/mL (≈ 41.5 µM)
MIC ([9]; 24 h, isolate 07-2737, 24 hours): 16 µg/mL (≈ 41.5 µM)
MIC ([9]; 24 h, isolate 07-2829, 24 hours): 64 µg/mL (≈ 166 µM)
MIC ([9]; 48 h, isolate 07-2665, 48 hours): 32 µg/mL (≈ 83 µM)
MIC ([9]; 48 h, isolate 07-2737, 48 hours): 32 µg/mL (≈ 83 µM)
MIC ([9]; 48 h, isolate 07-2829, 48 hours): 64 µg/mL (≈ 166 µM)
MIC ([10]; 24 h, isolate 07-3006, 24 hours): 64 µg/mL (≈ 166 µM)
MIC ([10]; 24 h, isolate 07-3011, 24 hours): 64 µg/mL (≈ 166 µM)
MIC ([10]; 24 h, isolate 07-3012, 24 hours): > 64 µg/mL
MIC ([10]; 48 h, isolate 07-3006, 48 hours): > 64 µg/mL
MIC ([10]; 48 h, isolate 07-3011, 48 hours): > 64 µg/mL
MIC ([10]; 48 h, isolate 07-3012, 48 hours): > 64 µg/mL
MIC ([11]; 24 h, isolate 07-1870, 24 hours): 32 µg/mL (≈ 83 µM)
MIC ([11]; 24 h, isolate 07-2044, 24 hours): 32 µg/mL (≈ 83 µM)
MIC ([11]; 24 h, isolate 07-2078, 24 hours): > 64 µg/mL
MIC ([11]; 48 h, isolate 07-1870, 48 hours): 64 µg/mL (≈ 166 µM)
MIC ([11]; 48 h, isolate 07-2044, 48 hours): 64 µg/mL (≈ 166 µM)
MIC ([11]; 48 h, isolate 07-2078, 48 hours): > 64 µg/mL
MIC ([12]; 24 h, isolate 05-388, 24 hours): 16 µg/mL (≈ 41.5 µM)
MIC ([12]; 24 h, isolate 06-4126, 24 hours): 8 µg/mL (≈ 20.8 µM)
MIC ([12]; 24 h, isolate 07-2039, 24 hours): 8 µg/mL (≈ 20.8 µM)
MIC ([12]; 48 h, isolate 05-388, 48 hours): > 64 µg/mL
MIC ([12]; 48 h, isolate 06-4126, 48 hours): 64 µg/mL (≈ 166 µM)
MIC ([12]; 48 h, isolate 07-2039, 48 hours): > 64 µg/mL
